Data published in US20140303105A1, “Primycin and components thereof for use in the treatment or prevention of infections caused by specific pathogens” (PANNONPHARMA GYÓGYSZERGYÁRTÓ ZRT., priority 2011, published 2014).
Values after ≈ are worked out from the molar mass of the structure shown. Where two headings read alike, the source gives them in different places.

Experiments:
[1] = system: Staphylococcus epidermidis; conditions: by Bryskier; cited from earlier work
[2] = system: Staphylococcus aureus ATCC 25923; conditions: cited from earlier work
[3] = system: Enterococcus sp., vancomycin susceptible; test: Standard microdilution susceptibility test, clinical isolates; type: cell-based; conditions: for MIC50 / MIC90: Enterococcus
Escherichia coli B 1218 = conditions: cited from earlier work
[4] = system: Streptococcus pneumoniae, penicillin susceptible; test: Standard microdilution susceptibility test, clinical isolates; type: cell-based; conditions: for MIC50 / MIC90: Streptococcus pneumoniae
Coryneform(s) = conditions: by Bryskier; cited from earlier work
[5] = system: Coagulase-negative Staphylococus sp., methicillin susceptible; test: Standard microdilution susceptibility test, clinical isolates; type: cell-based
[6] = system: Staphylococcus saprophyticus 8454; conditions: cited from earlier work
Diphteroides 8264 = conditions: cited from earlier work
[7] = system: Staphylococcus epidermidis 7586; conditions: cited from earlier work
S. aureus = conditions: by Bryskier; cited from earlier work
[8] = system: Staphylococcus aureus 7503; conditions: cited from earlier work
B. subtilis ATCC 6633 = conditions: by Bryskier; cited from earlier work
Enterobacter cloacae = conditions: by Bryskier; cited from earlier work
[9] = system: Streptococcus viridans sp.; test: Standard microdilution susceptibility test, clinical isolates; type: cell-based; conditions: for MIC50 / MIC90: Streptococcus viridans
[10] = system: Staphylococcus aureus, methicillin resistant; test: as above; type: cell-based; conditions: for MIC50 / MIC90: Staphylococcus aureus
[11] = system: Enterobacter cloacae B 520; conditions: cited from earlier work
Propionibacterium acnes [12] = conditions: cited from earlier work
[13] = system: Serotype β Streptococcus 8252; conditions: cited from earlier work
Streptococcus mitis = conditions: by Bryskier; cited from earlier work
Propionibacterium acnes [14] = conditions: by Bryskier; cited from earlier work
Staphylococcus capitis = conditions: cited from earlier work
S. aureus ATCC 25923 = conditions: by Bryskier; cited from earlier work
Micrococcus spp. = conditions: cited from earlier work
Escherichia coli = conditions: by Bryskier; cited from earlier work
S. pyogenes = conditions: by Bryskier; cited from earlier work
[15] = system: Staphylococcus aureus, methicillin susceptible; test: Standard microdilution susceptibility test, clinical isolates; type: cell-based; conditions: for MIC50 / MIC90: Staphylococcus aureus
[16] = system: Staphylococcus hominis 7835; conditions: cited from earlier work
Streptococcus mitis 5728 = conditions: cited from earlier work
Micrococcus = conditions: by Bryskier; cited from earlier work
[17] = system: Coagulase-negative Staphylococus sp., methicillin resistant; test: Standard microdilution susceptibility test, clinical isolates; type: cell-based
[18] = system: Bacillus subtilis ATCC 6633; conditions: cited from earlier work
[19] = system: Streptococcus pneumoniae, penicillin resistant; test: Standard microdilution susceptibility test, clinical isolates; type: cell-based; conditions: for MIC50 / MIC90: Streptococcus pneumoniae
[20] = system: Streptococcus simulans 7866; conditions: cited from earlier work
[21] = system: Enterococcus sp., decreased vancomycin susceptibility; test: Standard microdilution susceptibility test, clinical isolates; type: cell-based; conditions: 5 clinical isolates
E. casseliflavus = test: Microdilution MIC, Enterococcus isolates with van resistance genes; type: cell-based; conditions: Enterococcus casseliflavus
Experimental: Identification and characterization of resistance patterns of these bacteria were performed by standard methods.
When forming the test groups we attached great importance to the increasing incidence of drug-resistant microbes causing therapeutic problems. Most important of them are methicillin-resistant Staphylococcus aureus (MRSA), methicillin-resistant coagulase-negative Staphylococcus spp. (MRCoNS), penicillin-resistant Streptococcus pneumoniae (pneumococcus), vancomycin-resistant Enterococcus spp. (VRE). Pneumococcus isolates represented various serotypes, VRE isolates belonged to various species. Moreover, vancomycin-resistance of VRE isolates was based on different genetic backgrounds. Antibiotic-resistant strains were also represented among international reference strains, for example methicillin-resistant Staphylococcus aureus ATCC 43300 (MRSA), Staphylococcus aureus with decreased vancomycin susceptibility ATCC 700698 and 700699 (vancomycin intermediate Staphylococcus aureus—VISA), mupirocin-resistant Staphylococcus aureus ATCC BAA1708 and vancomycin-resistant Enterococcus faecalis ATCC 51299 (VRE).
Susceptibility tests were performed according to the standard microdilution method (NCCLS (CLSI) M7-A7).
The lowest concentration at which no bacterial growth was observed after the incubation period is the Minimal Inhibitory Concentration (MIC). The MIC value is inversely proportional to the antimicrobial efficacy. MIC values of antimicrobial agents can differ by species or even by bacterial strains within species.

[22] = 20 clinical isolates, read-out: MIC 50%
[23] = 20 clinical isolates, read-out: MIC 90%
[24] = 10 clinical isolates, read-out: MIC 50%
[25] = 10 clinical isolates, read-out: MIC 90%

## CC[C@H]1OC(=O)[C@H](C)[C@@H](O[C@H]2C[C@@](C)(OC)[C@@H](O)[C@H](C)O2)[C@H](C)[C@@H](O[C@@H]2O[C@H](C)C[C@H](N(C)C)[C@H]2O)[C@](C)(O)C[C@@H](C)C(=O)[C@H](C)[C@@H](O)[C@]1(C)O [Erythromycin]
[1]
  MIC: <0.5 µg/mL
[2]
  MIC: 1.0 µg/mL (≈ 1.36 µM)
[3]; [22]
  MIC50: 1 µg/mL (≈ 1.36 µM)
[3]; [23]
  MIC90: > 16 µg/mL
Escherichia coli B 1218
  MIC: 62.5 µg/mL (≈ 85.2 µM)
[4]; [24]
  MIC50: 0.03 µg/mL (≈ 0.0409 µM)
[4]; [25]
  MIC90: 0.03 µg/mL (≈ 0.0409 µM)
Coryneform(s)
  MIC: >250 µg/mL
[5]; [24]
  MIC50: 0.125 µg/mL (≈ 0.17 µM)
[5]; [25]
  MIC90: > 16 µg/mL
[6]
  MIC: 1.0 µg/mL (≈ 1.36 µM)
Diphteroides 8264
  MIC: >250 µg/mL
[7]
  MIC: <0.5 µg/mL
S. aureus
  MIC: >250 µg/mL
[8]
  MIC: >250 µg/mL
B. subtilis ATCC 6633
  MIC: <0.5 µg/mL
Enterobacter cloacae
  MIC: 250 µg/mL (≈ 341 µM)
[9]; [22]
  MIC50: 1 µg/mL (≈ 1.36 µM)
[9]; [23]
  MIC90: > 16 µg/mL
[10]; [24]
  MIC50: > 16 µg/mL
[10]; [25]
  MIC90: > 16 µg/mL
[11]
  MIC: 250 µg/mL (≈ 341 µM)
Propionibacterium acnes [12]
  MIC: <0.5 µg/mL
[13]
  MIC: 0.5 µg/mL (≈ 0.681 µM)
Streptococcus mitis
  MIC: 250 µg/mL (≈ 341 µM)
Propionibacterium acnes [14]
  MIC: <0.5 µg/mL
Staphylococcus capitis
  MIC: <0.5 µg/mL
S. aureus ATCC 25923
  MIC: 1.0 µg/mL (≈ 1.36 µM)
Micrococcus spp.
  MIC: <0.5 µg/mL
Escherichia coli
  MIC: 62.5 µg/mL (≈ 85.2 µM)
S. pyogenes
  MIC: 0.5 µg/mL (≈ 0.681 µM)
[15]; [24]
  MIC50: 0.125 µg/mL (≈ 0.17 µM)
[15]; [25]
  MIC90: > 16 µg/mL
[16]
  MIC: 250 µg/mL (≈ 341 µM)
Streptococcus mitis 5728
  MIC: 250 µg/mL (≈ 341 µM)
Micrococcus
  MIC: <0.5 µg/mL
[17]; [24]
  MIC50: 0.25 µg/mL (≈ 0.341 µM)
[17]; [25]
  MIC90: > 16 µg/mL
[18]
  MIC: <0.5 µg/mL
[19]; [24]
  MIC50: 2 µg/mL (≈ 2.73 µM)
[19]; [25]
  MIC90: > 16 µg/mL
[20]
  MIC: 7.8 µg/mL (≈ 10.6 µM)

## CN[C@H](CC(C)C)C(=O)N[C@H]1C(=O)N[C@@H](CC(N)=O)C(=O)N[C@H]2C(=O)N[C@H]3C(=O)N[C@H](C(=O)N[C@H](C(=O)O)c4cc(O)cc(O)c4-c4cc3ccc4O)[C@H](O)c3ccc(c(Cl)c3)Oc3cc2cc(c3O[C@@H]2O[C@H](CO)[C@@H](O)[C@H](O)[C@H]2O[C@H]2C[C@](C)(N)[C@H](O)[C@H](C)O2)Oc2ccc(cc2Cl)[C@H]1O [Vancomycin]
[3]; 20 clinical isolates
  MIC Range: 1 to 4 µg/mL
  Ratio of Sensitive/Total: 20/20
[3]
  MIC50: 1 µg/mL (≈ 0.69 µM)
  MIC90: 2 µg/mL (≈ 1.38 µM)
[4]; 10 clinical isolates
  MIC Range: 0.25 to 0.5 µg/mL
  Ratio of Sensitive/Total: 10/10
[4]
  MIC50: 0.5 µg/mL (≈ 0.345 µM)
  MIC90: 0.5 µg/mL (≈ 0.345 µM)
[5]
  MIC50: 1 µg/mL (≈ 0.69 µM)
  MIC90: 2 µg/mL (≈ 1.38 µM)
[5]; 10 clinical isolates
  MIC Range: 1 to 2 µg/mL
  Ratio of Sensitive/Total: 10/10
[9]; 20 clinical isolates
  MIC Range: 0.5 to 1 µg/mL
  Ratio of Sensitive/Total: 10/20
[9]
  MIC50: 0.5 µg/mL (≈ 0.345 µM)
  MIC90: 1 µg/mL (≈ 0.69 µM)
[21]
  Ratio of Sensitive/Total: 0/5
[10]; 10 clinical isolates
  MIC Range: 0.5 to 1 µg/mL
  Ratio of Sensitive/Total: 10/10
[10]
  MIC50: 1 µg/mL (≈ 0.69 µM)
  MIC90: 1 µg/mL (≈ 0.69 µM)
[15]; 10 clinical isolates
  MIC Range: 0.5 to 2 µg/mL
  Ratio of Sensitive/Total: 10/10
[15]
  MIC50: 1 µg/mL (≈ 0.69 µM)
  MIC90: 1 µg/mL (≈ 0.69 µM)
E. casseliflavus; resistance gene van C1
  MIC: 16 µg/mL (≈ 11 µM)
E. casseliflavus; resistance gene van C2
  MIC: 8 µg/mL (≈ 5.52 µM)
[17]
  MIC50: 2 µg/mL (≈ 1.38 µM)
  MIC90: 2 µg/mL (≈ 1.38 µM)
[17]; 10 clinical isolates
  MIC Range: 1 to 2 µg/mL
  Ratio of Sensitive/Total: 10/10
[19]; 10 clinical isolates
  MIC Range: 0.25 to 0.5 µg/mL
  Ratio of Sensitive/Total: 10/10
[19]
  MIC50: 0.5 µg/mL (≈ 0.345 µM)
  MIC90: 0.5 µg/mL (≈ 0.345 µM)

## [H]/N=C(/N)N[C@H]1[C@H](O)[C@@H](O)[C@H](O[C@@H]2O[C@@H](C)[C@](O)(C=O)[C@H]2O[C@@H]2O[C@@H](CO)[C@H](O)[C@@H](O)[C@@H]2NC)[C@@H](N/C(N)=N\[H])[C@@H]1O [Streptomycin]
[2]
  MIC: 3.9 µg/mL (≈ 6.71 µM)
Escherichia coli B 1218
  MIC: 15.6 µg/mL (≈ 26.8 µM)
[6]
  MIC: 1.0 µg/mL (≈ 1.72 µM)
Diphteroides 8264
  MIC: >250 µg/mL
[7]
  MIC: 2.0 µg/mL (≈ 3.44 µM)
[8]
  MIC: 2.0 µg/mL (≈ 3.44 µM)
[11]
  MIC: 7.8 µg/mL (≈ 13.4 µM)
Propionibacterium acnes [12]
  MIC: <0.5 µg/mL
[13]
  MIC: 3.9 µg/mL (≈ 6.71 µM)
Staphylococcus capitis
  MIC: 3.9 µg/mL (≈ 6.71 µM)
Micrococcus spp.
  MIC: 3.9 µg/mL (≈ 6.71 µM)
[16]
  MIC: 2.0 µg/mL (≈ 3.44 µM)
Streptococcus mitis 5728
  MIC: 250 µg/mL (≈ 430 µM)
[18]
  MIC: 1.0 µg/mL (≈ 1.72 µM)
[20]
  MIC: 2.0 µg/mL (≈ 3.44 µM)

## CC1(C)S[C@@H]2[C@H](NC(=O)[C@H](N)c3ccccc3)C(=O)N2[C@H]1C(=O)O [Ampicillin]
[1]
  MIC: <0.5 µg/mL
[2]
  MIC: <0.5 µg/mL
Escherichia coli B 1218
  MIC: 2.0 µg/mL (≈ 5.72 µM)
Coryneform(s)
  MIC: 31.3 µg/mL (≈ 89.6 µM)
[6]
  MIC: <0.5 µg/mL
Diphteroides 8264
  MIC: 31.3 µg/mL (≈ 89.6 µM)
[7]
  MIC: <0.5 µg/mL
S. aureus
  MIC: <0.5 µg/mL
[8]
  MIC: <0.5 µg/mL
B. subtilis ATCC 6633
  MIC: <0.5 µg/mL
Enterobacter cloacae
  MIC: 7.8 µg/mL (≈ 22.3 µM)
[11]
  MIC: 7.8 µg/mL (≈ 22.3 µM)
Propionibacterium acnes [12]
  MIC: 1.0 µg/mL (≈ 2.86 µM)
[13]
  MIC: <0.5 µg/mL
Streptococcus mitis
  MIC: 7.8 µg/mL (≈ 22.3 µM)
Propionibacterium acnes [14]
  MIC: 1.0 µg/mL (≈ 2.86 µM)
Staphylococcus capitis
  MIC: <0.5 µg/mL
S. aureus ATCC 25923
  MIC: <0.5 µg/mL
Micrococcus spp.
  MIC: <0.5 µg/mL
Escherichia coli
  MIC: 2.0 µg/mL (≈ 5.72 µM)
S. pyogenes
  MIC: <0.5 µg/mL
[16]
  MIC: <0.5 µg/mL
Streptococcus mitis 5728
  MIC: 7.8 µg/mL (≈ 22.3 µM)
Micrococcus
  MIC: <0.5 µg/mL
[18]
  MIC: <0.5 µg/mL
[20]
  MIC: <0.5 µg/mL
